Legend:
[1] = parameters: method as in PMID 25047917; settings: after oral administration; cited from earlier work
mice [2] = test: Chimney test; type: in vivo; settings: for Impairment of motor coordination (percentage of animals): 30 min before test
Experimental: The chimney test was performed to evaluate influence of PTE on motor coordination in mice. During the test mice had to climb backwards up the plastic transparent cylinder (inner diameter 3 cm and length 30 cm) with gravelly inside. The inability of mice to escape from the cylinder within 60 s was considered as an motor impairment. Results obtained in the test were presented as percent of impaired mice in groups of 10–12 animals and were compared with the Fisher’s exact probability test.

[3] = system: 6 Hz-induced psychomotor seizures in mice; test: 6 Hz psychomotor seizure test with supramaximal stimulation (32 and 44 mA); type: in vivo; settings: Mus musculus, ip, 30 min before test
Text: Psychomotor (limbic) seizures were induced by transcorneal stimulation (6 Hz, 0.2 ms rectangular pulse, 3 s duration) generated by a Grass S48 stimulator coupled with a constant current unit CCU1 (both from Grass Technologies, West Warwick, RI, USA). Before stimulation a drop of ocular anesthetic, 1% tetracaine hydrochloride solution, was applied into the animals’ corneas. The electrodes were soaked in saline to ensure the good electrical contact. During the stimulation animals were restrained manually and immediately after the stimulation were placed in a Plexiglas box for observation of presence or absence of the psychomotor seizures. These seizures were characterized by immobilization or stun, often associated with rearing, forelimb clonus, twitching of vibrissae and elevated tail (Straub-tail), lasting at least 10 s from the stimulation. Lack of the above symptoms or their cessation within 10 s from the stimulation was considered as absence of seizure activity.
In the present study two 6 Hz-induced psychomotor seizure tests were performed: (1) the 6 Hz psychomotor seizure threshold test which employed stimulation at varied current intensities, and (2) the 6 Hz psychomotor seizure test with supramaximal stimulation at 32 mA and 44 mA. […]

mice [4] = test: Forced swim test; type: in vivo; settings: PTE 50 to 200 mg/kg ip, data not shown
Experimental: The forced swim test was carried out according to the method described by Porsolt et al. to assess antidepressant properties of PTE. Mice were placed individually in a glass cylinder (25 cm high; 10 cm diameter) containing tap water to a depth of 11 cm. Water was maintained at temperature of 23–25 °C. Mice were permitted to swim for 6 min and duration of their immobility was recorded during the last 4 min of the test by a trained experimenter who was blinded to the treatment. Immobility time was recorded using cumulative stopwatches. Mouse was considered to be immobile when it was floating in the water without struggling and making no attempts to escape, it was making only these movements necessary to keep its head above the water. After each trial, the water in the cylinder was replaced with fresh water. Experimental groups consisted of 10 animals.
Data obtained in the forced swim test were expressed as the mean (in s) + SEM immobility time in each experimental group. Results were analyzed by one-way ANOVA.

mice [5] = test: Grip-strength test; type: in vivo; settings: for Neuromuscular strength: 30 min before test
Experimental: The acute effect of PTE on the skeletal muscles strength in mice was determined in the grip strength test. The apparatus for this test (BioSeb, Chaville, France) consisted of a steel wire grid (8 × 8 cm) connected to an isometric force transducer. Each mouse was lifted by tail and allowed to grasp the grid with its forepaws and then it was gently pulled backward until its released the grid. The maximal force in newtons (N) exerted by mouse before leaving the grid was recorded. The mean of three consecutive measurements for each animal was calculated and normalized to body weight (mN/g).
Experimental groups consisted of 12 animals. Results obtained in the grip-strength test were compared using one-way ANOVA followed by the Tukey’s post-hoc multiple comparison test.

[6] = system: PTZ-induced seizures in mice; test: Timed iv PTZ seizure threshold test in mice; type: in vivo; settings: for threshold for the first myoclonic twitch vs negative control: p < 0.001
Experimental: Each mice was placed in the cylindrical restrainer and the needle (27G, 3/4 in., Sterican®, B. Braun Melsungen AG, Melsungen, Germany) was injected into the lateral tail vein. The needle was attached by the polyethylene drain (PE20RW, Plastic One Inc. Roanoke, VA, USA) with the syringe containing 1% solution of PTZ (Sigma–Aldrich, St. Louis, MO, USA) in water and the syringe was located in the infuse pomp (model Physio 22, Hugo Sachs Elektronik–Harvard Apparatus GmbH, March-Hugstetten, Germany). The correct placement of the needle in the vein was confirmed based on the presence of the blood in the drain and the needle was protected against displacement by a peace of adhesive tape. Following injection, mice were took out from the restrainer and placed in the Plexiglas box for observation. The PTZ solution was infused into the vein at a constant rate of 0.2 ml/min. The time intervals from the start of infusion of PTZ solution to the beginning of three kinds of seizures, i.e., the first myoclonic twitch, generalized clonus with loss of the righting reflex and forelimb tonic extension, were noted. Infusion of PTZ solution was stopped immediately after onset of the tonic seizures, which usually were lethal. If animal survived the test, it was euthanized immediately. The threshold dose of PTZ (in mg/kg body weight) for each kind of seizures was calculated according to the following formula: PTZmg/kg=infusion durations×infusion rateml/s×PTZ concentrationmg/ml/weightkg
Experimental groups consisted of 9–13 animals. The data obtained in the iv PTZ test are presented as the threshold dose of PTZ (in mg/kg) + standard error of the mean (SEM) needed to elicit the respective kind of seizures. The data were analyzed by one-way ANOVA followed by the Tukey’s multiple comparison test. Statistical significance was noted when p values were equal or lower than 0.05.

## COc1cc(/C=C/c2ccc(O)cc2)cc(OC)c1 [PTE, trans-3,5-dimethoxy-4′-hydroxy-trans-stilbene]
[1]
  brain concentration of PTE relative to pterostilbene-4’sulphate (main metabolite): nearly fivefold higher
  time of peak in brain tissue: 2 h
Mice [2]; PTE 50 mg/kg ip
  Impairment of motor coordination (percentage of animals): 0%
Mice [2]; PTE 100 mg/kg ip
  Impairment of motor coordination (percentage of animals): 0%
Mice [2]; PTE 400 mg/kg ip
  Impairment of motor coordination (percentage of animals): 0%
Mice [2]; PTE 600 mg/kg ip
  Impairment of motor coordination (percentage of animals): 0%
Mice [2]; PTE 50–800 mg/kg ip
  influence on motor coordination: did not significantly influence
[3]; current intensity 32 mA
  ED50: 506 ± 44.7 mg/kg
[3]; current intensity 44 mA
  ED50: 541 ± 41.5 mg/kg
Mice [4]
  immobility time vs control: did not significantly reduce
Mice [5]; PTE 50 mg/kg ip
  Neuromuscular strength: 30.34 ± 1.16 mN/g
Mice [5]; PTE 100 mg/kg ip
  Neuromuscular strength: 29.14 ± 0.95 mN/g
Mice [5]; PTE 200 mg/kg ip
  Neuromuscular strength: 28.76 ± 2.16 mN/g
Mice [5]; PTE 400 mg/kg ip
  Neuromuscular strength: 30.39 ± 2.17 mN/g
Mice [5]; PTE 600 mg/kg ip
  Neuromuscular strength: 30.19 ± 0.97 mN/g
Mice [5]; PTE 800 mg/kg ip
  Neuromuscular strength: 31.12 ± 1.44 mN/g
Mice [5]; PTE 50 to 800 mg/kg ip
  influence on muscular strength: did not significantly influence
[6]; PTE 100 mg/kg ip, 30 min before test
  threshold for the first myoclonic twitch vs negative control: Statistically significant increases
[6]; PTE 200 mg/kg ip, 30 min before test
  threshold for the first myoclonic twitch vs negative control: Statistically significant increases
[6]; PTE 200 mg/kg ip, 30 min before test, p < 0.01
  increase of threshold for generalized clonic seizures vs negative control: over 45%
[6]; PTE 50 to 200 mg/kg ip, 30 min before test
  threshold for tonic forelimb extension vs negative control: did not significantly affect
[6]; iv PTZ test, data not shown
  time of highest anticonvulsant activity after ip administration (time-course effect): 30 min
